According to US9833497B2, “Human originated EGF domain proteins and use of the same” (CHENGDU SOURCEBIO LIMITED-LIABILITY COMPANY, priority 2013, dated 2017):

Tests used:
Type in all cases: cell-based
Aeromonas hydrophila = assay: MIC against Gram-negative bacteria: Aeromonas hydrophila
Outline: (§1)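 LB broth cultures at McFarland 0.5, spun down, resuspended, diluted to 5×10^5 CFU/mL final. Two-fold serial dilutions of purified human EGF domain proteins, triplicate. 37° C, 175 rpm shaking. Endpoint: no visible growth.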

Proteus mirabilis = assay: MIC against Gram-negative bacteria: Proteus mirabilis
Outline: as §1

Serratia marcescens = assay: MIC against Gram-negative bacteria: Serratia marcescens
Outline: as §1

Proteus vulgaris = assay: MIC against Gram-negative bacteria: Proteus vulgaris
Outline: as §1

E. coli BL21 = assay: MIC against Gram-negative bacteria: E. coli BL21
Outline: as §1

E. coli DH5α = assay: Antibacterial activity: MIC and growth curve against E. coli DH5α in 96-well plate; details: minimal inhibitory concentration against E. coli DH5α; 96-well plate, 5×10^5 CFU/mL, 37° C., judged after 8 h
Outline: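 MIC taken as lowest protein level with no bacterial growth, tracked by A600 every 30 min during 37 °C, 175 rpm culture. Two-fold protein series 50-12.5 μg/mL final, triplicate wells, against 5×10^5 CFU/mL of LB-washed mid-log cells.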

Citrobacter diversus = assay: MIC against Gram-negative bacteria: Citrobacter diversus
Outline: as §1

Pseudomonas aeruginosa = assay: MIC against Gram-negative bacteria: Pseudomonas aeruginosa
Outline: as §1

Moraxella catarrhalis = assay: MIC against Gram-negative bacteria: Moraxella catarrhalis
Outline: as §1

Enterobacter cloacae = assay: MIC against Gram-negative bacteria: Enterobacter cloacae
Outline: as §1

Klebsiella pneumonia = assay: MIC against Gram-negative bacteria: Klebsiella pneumonia
Outline: as §1

[1] = A. hydrophila, 10 h cultivation at 37° C., 5×10^5 CFU/mL
[2] = P. mirabilis, 10 h cultivation at 37° C., 5×10^5 CFU/mL
[3] = S. marcescens, 10 h cultivation at 37° C., 5×10^5 CFU/mL
[4] = P. vulgaris, 10 h cultivation at 37° C., 5×10^5 CFU/mL
[5] = E. coli BL21, 10 h cultivation at 37° C., 5×10^5 CFU/mL
[6] = C. diversus, 10 h cultivation at 37° C., 5×10^5 CFU/mL
[7] = P. aeruginosa, 10 h cultivation at 37° C., 5×10^5 CFU/mL
[8] = M. catarrhalis, 10 h cultivation at 37° C., 5×10^5 CFU/mL
[9] = E. cloacae, 10 h cultivation at 37° C., 5×10^5 CFU/mL
[10] = K. pneumonia, 10 h cultivation at 37° C., 5×10^5 CFU/mL
[11] = Aeromonas hydrophila, 5×10^5 CFU/mL, 10 h cultivation at 37° C.
[12] = Proteus mirabilis, 5×10^5 CFU/mL, 10 h cultivation at 37° C.
[13] = Serratia marcescens, 5×10^5 CFU/mL, 10 h cultivation at 37° C.
[14] = Proteus vulgaris, 5×10^5 CFU/mL, 10 h cultivation at 37° C.
[15] = E. coli BL21, 5×10^5 CFU/mL, 10 h cultivation at 37° C.
[16] = Citrobacter diversus, 5×10^5 CFU/mL, 10 h cultivation at 37° C.
[17] = Pseudomonas aeruginosa, 5×10^5 CFU/mL, 10 h cultivation at 37° C.
[18] = Moraxella catarrhalis, 5×10^5 CFU/mL, 10 h cultivation at 37° C.
[19] = Enterobacter cloacae, 5×10^5 CFU/mL, 10 h cultivation at 37° C.
[20] = Klebsiella pneumonia, 5×10^5 CFU/mL, 10 h cultivation at 37° C.
[21] = 96-well plate, 5×10^5 CFU/mL, 37° C., 10 h
[22] = Aeromonas hydrophila, 96-well plate, 5×10^5 CFU/mL, 37° C., 10 h
[23] = Proteus mirabilis, 96-well plate, 5×10^5 CFU/mL, 37° C., 10 h
[24] = Serratia marcescens, 96-well plate, 5×10^5 CFU/mL, 37° C., 10 h
[25] = Proteus vulgaris, 96-well plate, 5×10^5 CFU/mL, 37° C., 10 h
[26] = E. coli BL21, 96-well plate, 5×10^5 CFU/mL, 37° C., 10 h
[27] = Citrobacter diversus, 96-well plate, 5×10^5 CFU/mL, 37° C., 10 h
[28] = Pseudomonas aeruginosa, 96-well plate, 5×10^5 CFU/mL, 37° C., 10 h
[29] = Moraxella catarrhalis, 96-well plate, 5×10^5 CFU/mL, 37° C., 10 h
[30] = Enterobacter cloacae, 96-well plate, 5×10^5 CFU/mL, 37° C., 10 h
[31] = Klebsiella pneumonia, 96-well plate, 5×10^5 CFU/mL, 37° C., 10 h

## PRT431 (DIDECRTIPEACRGDMMCVNQNGGYLCIPRTNPVYRGPYSN; listed as Homo sapiens)
Aeromonas hydrophila; [1]
  MIC: 12.5 µg/mL
Proteus mirabilis; [2]
  MIC: 50 µg/mL
Serratia marcescens; [3]
  MIC: 12.5 µg/mL
Proteus vulgaris; [4]
  MIC: 25 µg/mL
E. coli BL21; [5]
  MIC: 12.5 µg/mL
E. coli DH5α
  MIC: 50 µg/mL
Citrobacter diversus; [6]
  MIC: 50 µg/mL
Pseudomonas aeruginosa; [7]
  MIC: 50 µg/mL
Moraxella catarrhalis; [8]
  MIC: 12.5 µg/mL
Enterobacter cloacae; [9]
  MIC: 50 µg/mL
Klebsiella pneumonia; [10]
  MIC: 12.5 µg/mL

## PRT162 (LIDFCALSPCAHGTCRSVGTSYKCLCDPGYHGLYCE; listed as Homo sapiens)
Aeromonas hydrophila; [1]
  MIC (μg/mL) A. hydrophila: 25 µg/mL
Proteus mirabilis; [2]
  MIC (μg/mL) P. mirabilis: 100 µg/mL
Serratia marcescens; [3]
  MIC (μg/mL) S. marcescens: 25 µg/mL
Proteus vulgaris; [4]
  MIC (μg/mL) P. vulgaris: 12.5 µg/mL
E. coli BL21; [5]
  MIC (μg/mL) E. coli BL21: 25 µg/mL
E. coli DH5α
  MIC: 12.5 µg/mL
Citrobacter diversus; [6]
  MIC (μg/mL) C. diversus: 12.5 µg/mL
Pseudomonas aeruginosa; [7]
  MIC (μg/mL) P. aeruginosa: 12.5 µg/mL
Moraxella catarrhalis; [8]
  MIC (μg/mL) M. catarrhalis: 12.5 µg/mL
Enterobacter cloacae; [9]
  MIC (μg/mL) E. cloacae: 12.5 µg/mL
Klebsiella pneumonia; [10]
  MIC (μg/mL) K. pneumonia: 25 µg/mL

## PRT1465 (CECDSLGTLPGTICDPISGQCLCVPNRQGRRCNQCQPGFYISPGNATGCLP; listed as Homo sapiens)
Aeromonas hydrophila; [11]
  MIC against A. hydrophila: 50 µg/mL
Proteus mirabilis; [12]
  MIC against P. mirabilis: 50 µg/mL
Serratia marcescens; [13]
  MIC against S. marcescens: 12.5 µg/mL
Proteus vulgaris; [14]
  MIC against P. vulgaris: 25 µg/mL
E. coli BL21; [15]
  MIC against E. coli BL21: 25 µg/mL
E. coli DH5α
  MIC: 12.5 µg/mL
Citrobacter diversus; [16]
  MIC against C. diversus: 25 µg/mL
Pseudomonas aeruginosa; [17]
  MIC against P. aeruginosa: 50 µg/mL
Moraxella catarrhalis; [18]
  MIC against M. catarrhalis: 12.5 µg/mL
Enterobacter cloacae; [19]
  MIC against E. cloacae: 25 µg/mL
Klebsiella pneumonia; [20]
  MIC against K. pneumonia: 12.5 µg/mL

## PRT451 (SFYCSCRPGYKLMSDKRTCVDIDE; listed as Homo sapiens)
Aeromonas hydrophila; [21]
  MIC against A. hydrophila: 50 µg/mL
Proteus mirabilis; [21]
  MIC against P. mirabilis: 12.5 µg/mL
Serratia marcescens; [21]
  MIC against S. marcescens: 12.5 µg/mL
Proteus vulgaris; [21]
  MIC against P. vulgaris: 50 µg/mL
E. coli BL21; [21]
  MIC against E. coli BL21: 50 µg/mL
E. coli DH5α
  MIC: 25 µg/mL
Citrobacter diversus; [21]
  MIC against C. diversus: 12.5 µg/mL
Pseudomonas aeruginosa; [21]
  MIC against P. aeruginosa: 25 µg/mL
Moraxella catarrhalis; [21]
  MIC against M. catarrhalis: 50 µg/mL
Enterobacter cloacae; [21]
  MIC against E. cloacae: 25 µg/mL
Klebsiella pneumonia; [21]
  MIC against K. pneumonia: 12.5 µg/mL

## PRT241 (DTDECQIAGVCQQMCVNYVGGFECYCSEGHELEADGISCS; listed as Homo sapiens)
Aeromonas hydrophila; [1]
  MIC (μg/mL) A. hydrophila: 12.5 µg/mL
Proteus mirabilis; [2]
  MIC (μg/mL) P. mirabilis: 12.5 µg/mL
Serratia marcescens; [3]
  MIC (μg/mL) S. marcescens: 50 µg/mL
Proteus vulgaris; [4]
  MIC (μg/mL) P. vulgaris: 25 µg/mL
E. coli BL21; [5]
  MIC (μg/mL) E. coli BL21: 12.5 µg/mL
E. coli DH5α
  MIC: 12.5 µg/mL
Citrobacter diversus; [6]
  MIC (μg/mL) C. diversus: 12.5 µg/mL
Pseudomonas aeruginosa; [7]
  MIC (μg/mL) P. aeruginosa: 12.5 µg/mL
Moraxella catarrhalis; [8]
  MIC (μg/mL) M. catarrhalis: 25 µg/mL
Enterobacter cloacae; [9]
  MIC (μg/mL) E. cloacae: 12.5 µg/mL
Klebsiella pneumonia; [10]
  MIC (μg/mL) K. pneumonia: 12.5 µg/mL

## PRT165 (DVRACSSAPCANNGTCVSLDDGLYECSCAPGYSGKDCQ; listed as Homo sapiens)
Aeromonas hydrophila; [1]
  MIC (μg/mL) A. hydrophila: 25 µg/mL
Proteus mirabilis; [2]
  MIC (μg/mL) P. mirabilis: 12.5 µg/mL
Serratia marcescens; [3]
  MIC (μg/mL) S. marcescens: 12.5 µg/mL
Proteus vulgaris; [4]
  MIC (μg/mL) P. vulgaris: 25 µg/mL
E. coli BL21; [5]
  MIC (μg/mL) E. coli BL21: 12.5 µg/mL
E. coli DH5α
  MIC: 12.5 µg/mL
Citrobacter diversus; [6]
  MIC (μg/mL) C. diversus: 25 µg/mL
Pseudomonas aeruginosa; [7]
  MIC (μg/mL) P. aeruginosa: 25 µg/mL
Moraxella catarrhalis; [8]
  MIC (μg/mL) M. catarrhalis: 25 µg/mL
Enterobacter cloacae; [9]
  MIC (μg/mL) E. cloacae: 25 µg/mL
Klebsiella pneumonia; [10]
  MIC (μg/mL) K. pneumonia: 12.5 µg/mL

## PRT1026 (NKETCEHNHRQCSRHAFCTDYATGFCCHCQSKFYGNGKHCL; listed as Homo sapiens)
Aeromonas hydrophila; A. hydrophila, 10 h cultivation at 37° C.
  MIC: 50 µg/mL
Proteus mirabilis; P. mirabilis, 10 h cultivation at 37° C.
  MIC: 12.5 µg/mL
Serratia marcescens; S. marcescens, 10 h cultivation at 37° C.
  MIC: 50 µg/mL
Proteus vulgaris; P. vulgaris, 10 h cultivation at 37° C.
  MIC: 25 µg/mL
E. coli BL21; E. coli BL21, 10 h cultivation at 37° C.
  MIC: 25 µg/mL
E. coli DH5α
  MIC: 12.5 µg/mL
Citrobacter diversus; C. diversus, 10 h cultivation at 37° C.
  MIC: 12.5 µg/mL
Pseudomonas aeruginosa; P. aeruginosa, 10 h cultivation at 37° C.
  MIC: 50 µg/mL
Moraxella catarrhalis; M. catarrhalis, 10 h cultivation at 37° C.
  MIC: 50 µg/mL
Enterobacter cloacae; E. cloacae, 10 h cultivation at 37° C.
  MIC: 12.5 µg/mL
Klebsiella pneumonia; K. pneumonia, 10 h cultivation at 37° C.
  MIC: 25 µg/mL

## PRT97 (DSRGCARWCPQNSSCVNATACRCNPGFSSFSEIITTPTETCD; listed as Homo sapiens)
Aeromonas hydrophila; [22]
  MIC (μg/mL) A. hydrophila: 12.5 µg/mL
Proteus mirabilis; [23]
  MIC (μg/mL) P. mirabilis: 50 µg/mL
Serratia marcescens; [24]
  MIC (μg/mL) S. marcescens: 50 µg/mL
Proteus vulgaris; [25]
  MIC (μg/mL) P. vulgaris: 12.5 µg/mL
E. coli BL21; [26]
  MIC (μg/mL) E. coli BL21: 12.5 µg/mL
E. coli DH5α
  MIC: 25 µg/mL
Citrobacter diversus; [27]
  MIC (μg/mL) C. diversus: 50 µg/mL
Pseudomonas aeruginosa; [28]
  MIC (μg/mL) P. aeruginosa: 25 µg/mL
Moraxella catarrhalis; [29]
  MIC (μg/mL) M. catarrhalis: 100 µg/mL
Enterobacter cloacae; [30]
  MIC (μg/mL) E. cloacae: 12.5 µg/mL
Klebsiella pneumonia; [31]
  MIC (μg/mL) K. pneumonia: 12.5 µg/mL

## PRT1286 (PKSPCEGTECQNGANCVDQGNRPVCQCLPGFGGPECE; listed as Homo sapiens)
Aeromonas hydrophila; [22]
  MIC against A. hydrophila: 50 µg/mL
Proteus mirabilis; [23]
  MIC against P. mirabilis: 50 µg/mL
Serratia marcescens; [24]
  MIC against S. marcescens: 12.5 µg/mL
Proteus vulgaris; [25]
  MIC against P. vulgaris: 25 µg/mL
E. coli BL21; [26]
  MIC against E. coli BL21: 50 µg/mL
E. coli DH5α
  MIC: 12.5 µg/mL
Citrobacter diversus; [27]
  MIC against C. diversus: 12.5 µg/mL
Pseudomonas aeruginosa; [28]
  MIC against P. aeruginosa: 12.5 µg/mL
Moraxella catarrhalis; [29]
  MIC against M. catarrhalis: 25 µg/mL
Enterobacter cloacae; [30]
  MIC against E. cloacae: 12.5 µg/mL
Klebsiella pneumonia; [31]
  MIC against K. pneumonia: 50 µg/mL

## PRT1376 (ATRMCPADCRGRGRCVQGVCLCHVGYGGEDCG; listed as Homo sapiens)
Aeromonas hydrophila; [11]
  MIC against A. hydrophila: 12.5 µg/mL
Proteus mirabilis; [12]
  MIC against P. mirabilis: 50 µg/mL
Serratia marcescens; [13]
  MIC against S. marcescens: 25 µg/mL
Proteus vulgaris; [14]
  MIC against P. vulgaris: 12.5 µg/mL
E. coli BL21; [15]
  MIC against E. coli BL21: 12.5 µg/mL
E. coli DH5α
  MIC: 50 µg/mL
Citrobacter diversus; [16]
  MIC against C. diversus: 50 µg/mL
Pseudomonas aeruginosa; [17]
  MIC against P. aeruginosa: 50 µg/mL
Moraxella catarrhalis; [18]
  MIC against M. catarrhalis: 12.5 µg/mL
Enterobacter cloacae; [19]
  MIC against E. cloacae: 50 µg/mL
Klebsiella pneumonia; [20]
  MIC against K. pneumonia: 12.5 µg/mL
